According to PMC6367362, “MD001, a Novel Peroxisome Proliferator-activated Receptor α/γ Agonist, Improves Glucose and Lipid Metabolism” (Scientific Reports, 2019):

Molecular target: T1, human HA-PPARγ (Homo sapiens, UniProt P37231)
T1 construct: expressed in transfected cells; host or cells: HEK293
T1 sequence (P37231 1-505): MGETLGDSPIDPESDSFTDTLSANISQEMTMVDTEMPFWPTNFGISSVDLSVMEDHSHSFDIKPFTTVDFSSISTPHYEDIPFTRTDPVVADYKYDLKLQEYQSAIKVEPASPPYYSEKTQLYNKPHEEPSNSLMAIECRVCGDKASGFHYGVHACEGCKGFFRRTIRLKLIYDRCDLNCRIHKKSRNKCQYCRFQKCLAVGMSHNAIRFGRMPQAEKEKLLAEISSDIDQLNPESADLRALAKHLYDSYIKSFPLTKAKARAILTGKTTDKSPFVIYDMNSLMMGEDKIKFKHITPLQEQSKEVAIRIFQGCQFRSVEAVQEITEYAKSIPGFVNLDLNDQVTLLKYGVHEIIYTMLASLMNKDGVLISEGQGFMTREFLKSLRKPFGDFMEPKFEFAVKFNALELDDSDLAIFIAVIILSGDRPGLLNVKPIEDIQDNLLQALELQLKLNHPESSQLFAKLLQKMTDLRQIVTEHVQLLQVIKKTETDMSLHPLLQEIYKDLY
Experiment: PPRE luciferase activity assay in HEK293 cells transfected with HA-PPARγ
Type: cell-based
Design: transcriptional activity of PPARγ: dose or concentration left out as unconfirmed
Details: HEK293, PPRE-pk-Luc
Description: Figure 2 MD001 induces the expression of target genes through PPARα and PPARγ activation. HEK293 cells were transiently co-transfected with human HA-PPARα (A) and HA-PPARγ (B) expression vectors along with the reporter plasmid (PPRE-pk-Luc) or control reporter plasmid (pk-Luc) with Renilla vector for 24 h. Cells were treated with MD001 (10 μM), rosiglitazone (rosi) (10 μM) or WY14643 (WY) (10 μM) for 24 h. Luciferase activity was normalised to Renilla luciferase activity as described in the Methods section. **, vs. vehicle. (C) HepG2 cells were treated with MD001 (10 μM) for 24 h, and total RNA was isolated and synthesised into cDNA. Relative expression was quantitated using qRT-PCR. **, vs. vehicle. (D,E) HepG2 cells were transfected with control siRNA, PPARα siRNA (D), or PPARγ siRNA (E) for 48 h and treated with vehicle, WY14643 (10 μM), rosiglitazone (10 μM) or MD001 (10 μM) for 24 h. Subsequently, cells were harvested for total RNA isolation. Relative expression of target genes was quantitated using qRT-PCR. ^#, vs. control siRNA; ^‡, vs. control siRNA/vehicle; ^§, vs. control siRNA/WY; * and **, vs. control siRNA/MD001. Data represent the mean ± SD of three independent experiments. *P < 0.05, **P < 0.01, ^#P < 0.01, ^‡P < 0.01, and ^§P < 0.01.
For transient transfection, cells were transfected with plasmid DNA constructs by polyethylenimine (PEI, Polysciences, Inc., Warrington, PA, USA) according to the manufacturer’s instructions. Transcription activity assays of PPARα and PPARγ in HEK293 cells were performed by co-transfection of HA-PPARα, HA-PPARγ, and peroxisome proliferator-response element (PPRE) reporter plasmid (PPRE-pk-Luc) or control reporter plasmid (pk-Luc) with Renilla vector for 24 h. […] Luciferase activity was measured with the Dual-Luciferase Reporter Assay System (Promega, Madison, WI, USA) and quantified using GloMax (Promega, USA) according to the manufacturer’s protocol. […]
Luciferase activity was measured as described in the Methods section. […]

Cc1c(O)cc(O)c2c(-c3ccccc3)c(C(=O)/C=C/c3ccccc3)c(=O)oc12 [MD001]
transcription via PPARγ activation (luciferase activity) (10 μM, 24 h, vs. vehicle): significantly increased | transcriptional activity of PPARγ (24 h (Supplementary Fig. S2)): promoted simultaneous transcriptional activity
